Measurements taken from PMC6271935, “Synthesis and Broad-Spectrum Antiviral Activity of Some Novel Benzo-Heterocyclic Amine Compounds” (Molecules, 2014).
Several values for one entry are separate records, joined by “and”; a condition that tells them apart may be missing. Equal entries are not always repeated.

How the values were obtained:
Vero cells = assay: Cytotoxicity in Vero cells (CPE); conditions: 48 h, Reed & Muench
Method: (§1) The cytotoxicity of the compounds in MDCK, Vero and HepG2.2.15 cells was monitored via cytopathic effect (CPE) assays. The MDCK and Vero cells (2.5 × 10^4 /well) were plated in a 96-well plate. Following a 24 h hold period, the monolayer of cells was incubated in the presence of various concentrations of the test compounds. […] The TC50 value was calculated using Reed & Muench analysis.

HepG2.2.15 cells = assay: Cytotoxicity in HepG2.2.15 cells (CPE); format: cell-based, human; conditions: 3 + 3 days
Method: Cells were cultured for 3 days at 37 °C in a 5% CO2 atmosphere in an incubator, and the medium was replaced with fresh medium containing the test compounds for an additional 3 days. The cells were subsequently monitored by CPE and the TC50 value was calculated using Reed and Muench analysis.

Cox B3 = assay: organism not typed; format: cell-based, Coxsackie viruses (Cox B3 Nancy strain); conditions: Vero
[1] = tested on: Influenza A/hanfang/359/95; assay: microbe, parasite or virus in culture; format: cell-based; conditions: Influenza A virus, MDCK
HCV = assay: Anti-HCV assay in Huh7.5 cells, intracellular HCV RNA by real time RT-PCR; format: cell-based; conditions: Hepatitis C virus, 96 h
HBV = assay: Anti-HBV assay in HepG2.2.15 cells, viral DNA by real time PCR; format: cell-based, Hepatitis B virus; conditions: for IC50: Hepatitis B virus, HepG2.2.15, 144 h, intracellular viral DNA, 3 + 3 days
Method: The synthesized target compounds were assayed for their broad spectrum antiviral activity towards influenza A, HBV, HCV and Cox B3 virus in vitro. […] The inhibitory activities towards HBV and HCV were tested by real time PCR, and lamivudine (3TC) and teleprevir were used as positive controls, respectively.
The anti-HBV activities of test compounds and a positive control drug were tested in HepG2.2.15 cells. The HepG2.2.15 cells were cultured in 96-well plates and treated with the test compounds at 37 °C for 3 days. The medium was removed, and fresh medium containing the test compounds was added for an additional 3 days. The cells were harvested and intracellular DNA was extracted. The inhibition of viral DNA replication in treated cells versus untreated cells was determined by real time PCR.

MDCK cells = assay: Cytotoxicity in MDCK cells (CPE); format: cell-based, Canine; conditions: 48 h, Reed & Muench
Method: as §1

Huh7.5 cells = assay: Cytotoxicity in Huh7.5 cells (MTT); format: cell-based, human; conditions: 96 h
Method: The Huh7.5 cells (1 × 10^4 cells/well) were plated in 96-well plates. Six hours later the culture media was replaced with fresh medium containing the test compounds at various concentrations. Cytotoxicity was evaluated with the 3-(4,5-dimethylthiazol-2-yl)-2,5-diphenyltetrazolium bromide (MTT) assay after 96 h.
Huh7.5 cells were seeded at a density of 3 × 10^4 cells/cm^2. After 24 h of incubation, the cells were infected with an HCV viral stock (approximately 45 IU per cell) and simultaneously treated with Telaprevir, the test compounds, or the solvent control. The culture medium was removed 96 h after inoculation, and the total intracellular RNA and total intracellular proteins were extracted with a Qiagen Kit according to the manufacturer’s instructions. Intracellular HCV RNA was quantified using a one-step real time RT-PCR kit (Invitrogen). Cytotoxicity was tested by the MTT assay, and IC50 values were calculated by the Reed and Muench methods.

[2] = tested on: influenza A, HCV, Cox B3 virus and HBV; assay: Broad-spectrum antiviral panel (summary over all four antiviral assays); format: cell-based; conditions: range/approximate value over influenza A, read-out: IC50 over the entire virus panel

Compound | melting point [°C] | TC50 (50% cytotoxic concentration), Cox B3 (Vero cells) [µM] | TC50 (50% cytotoxic concentration), HBV (HepG2.2.15 cells) [µM] | IC50 (Cox B3) [µM] | IC50 [1] [µM] | IC50 (HCV) [µM] | anti-HBV activity (in words) (HBV) | IC50 (HBV) [µM] | TC50 (50% cytotoxic concentration), Influenza A/hanfang/359/95 (MDCK cells) [µM] | TC50 (50% cytotoxic concentration), HCV (Huh7.5 cells) [µM] | IC50 [2]
C(=C\c1ccccc1)/CNc1ccc2ncsc2c1 [3e, (E)-benzothiazol-6-yl-(3-phenyl-allyl)-amine] | 99 to 101 | 20.05 | 9.62 | 1.16 | 8.6 | 9.75 | did not exhibit any activity | > 5.56 | 24.10 | 43.58 | –
COc1ccccc1/C=C/CNc1ccc2ncsc2c1 [3f, (E)-benzothiazol-6-yl-[3-(2-methoxy-phenyl)-allyl]-amine] | 107 to 109 | 12.48 | 28.87 | 3.21 | 4.15 | 5.04 | – | 5.06 | 21.66 | 54.99 | 3.21 to 5.06 µM and ~5 µM
Cc1ccc(CNc2ccc3ncsc3c2)o1 [3g, Benzothiazol-6-yl-(5-methylfuran-2-ylmethyl)-amine] | 52 to 54 | 65.57 | 21.48 | 5.03 | 26.2 | 34.9 | – | 0.7 | 94.60 | 138.38 | 0.71 to 34.9 µM
Clc1ccc(CNc2ccc3ncsc3c2)s1 [3i, Benzothiazol-6-yl-(5-chlorothiophen-2-ylmethyl)-amine] | 104 to 106 | 13.18 | 9.62 | 2.53 | 3.42 | 9.81 | – | > 5.56 | 27.42 | 38.24 | –
c1ncc(CNc2ccc3ncsc3c2)cn1 [3j, Benzothiazol-6-yl-pyrimidin-5-ylmethyl-amine] | 127 to 129 | 826.44 | 28.87 | 53 | 214 | > 66.7 | – | > 16.7 | 826.44 | >200 | –
Cc1ccc(CNc2ccc3nc[nH]c3c2)o1 [4b, (3H-Benzoimidazol-5-yl)-(5-methyl-furan-2-ylmethyl)-amine] | 75 to 77 | 254.07 | >50 | 48.9 | 21.4 | 24.4 | complete loss of antiviral activity | > 50 | 440.02 | >200 | –
